Molecules are shown by their SMILES.

For the test, the target named is Neuronal acetylcholine receptor subunit alpha-7 (Homo sapiens, UniProt P36544). Kind of test: Agonist activity at alpha7 nAChR (unknown origin).
Chain of Neuronal acetylcholine receptor subunit alpha-7 (P36544 whole entry): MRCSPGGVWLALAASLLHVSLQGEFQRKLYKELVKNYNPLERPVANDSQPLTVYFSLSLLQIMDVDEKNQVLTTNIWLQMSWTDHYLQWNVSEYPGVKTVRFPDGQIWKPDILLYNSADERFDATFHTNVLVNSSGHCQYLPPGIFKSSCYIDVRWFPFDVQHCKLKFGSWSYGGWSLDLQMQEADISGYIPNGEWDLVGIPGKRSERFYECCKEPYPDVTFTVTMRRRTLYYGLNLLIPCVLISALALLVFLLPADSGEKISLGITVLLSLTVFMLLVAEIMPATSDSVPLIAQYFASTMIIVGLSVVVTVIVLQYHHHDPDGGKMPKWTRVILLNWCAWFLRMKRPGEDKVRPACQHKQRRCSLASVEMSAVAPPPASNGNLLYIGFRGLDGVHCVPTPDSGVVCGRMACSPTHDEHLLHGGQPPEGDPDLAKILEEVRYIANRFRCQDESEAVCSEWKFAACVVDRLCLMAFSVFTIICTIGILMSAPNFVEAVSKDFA
`COc1ccc(NC(=O)N2CCNCC2COc2cccnc2)cc1` (stereo not given) showed an IC50 of 11 nM.
For the molecule `c1cncc(OC[C@H]2CNCCN2c2nc3ncccc3o2)c1`, the IC50 stood at 6 nM.
Regarding `COc1ccc(NC(=O)N2CCNC[C@@H]2COc2cccnc2)cc1`, the IC50 came to 19 nM.
As for `COc1ccc(NC(=O)N2CCNCC2CCc2cccnc2)cc1` (stereo not given), the IC50 was > 5000 nM.
For the molecule `COc1ccc(OC(=O)N2CCNCC2CCc2cccnc2)cc1` (stereo not given), the IC50 was > 5000 nM.

What is called IC50 is the midpoint of a concentration-inhibition curve. Higher therefore signals weaker potency.
